From ChEMBL document CHEMBL5154903 (J Med Chem, 2022)
Active and inactive are the calls of the source. No cut-off for these calls is given here.

Legend:
HepG2 [1] = assay: Inhibition of lipid metabolism in human HepG2 cells assessed as increase in p-ACC/ACC ratio at 10 uM incubated for 24 hrs by Western blot analysis; type: functional, cell-based
[2] = Agonist activity at human TRbeta H435 mutant expressed in Escherichia coli BL21 (DE3) cells by alphascreen assay
hERG [3] = biological target: T1, hERG (Homo sapiens, UniProt Q12809); assay: Inhibition of hERG expressed in HEK293 cells at 10 uM by patch-clamp assay relative to control; type: toxicity, cell-based; details: HEK293 cells expressing hERG
T1 sequence (Q12809 whole entry): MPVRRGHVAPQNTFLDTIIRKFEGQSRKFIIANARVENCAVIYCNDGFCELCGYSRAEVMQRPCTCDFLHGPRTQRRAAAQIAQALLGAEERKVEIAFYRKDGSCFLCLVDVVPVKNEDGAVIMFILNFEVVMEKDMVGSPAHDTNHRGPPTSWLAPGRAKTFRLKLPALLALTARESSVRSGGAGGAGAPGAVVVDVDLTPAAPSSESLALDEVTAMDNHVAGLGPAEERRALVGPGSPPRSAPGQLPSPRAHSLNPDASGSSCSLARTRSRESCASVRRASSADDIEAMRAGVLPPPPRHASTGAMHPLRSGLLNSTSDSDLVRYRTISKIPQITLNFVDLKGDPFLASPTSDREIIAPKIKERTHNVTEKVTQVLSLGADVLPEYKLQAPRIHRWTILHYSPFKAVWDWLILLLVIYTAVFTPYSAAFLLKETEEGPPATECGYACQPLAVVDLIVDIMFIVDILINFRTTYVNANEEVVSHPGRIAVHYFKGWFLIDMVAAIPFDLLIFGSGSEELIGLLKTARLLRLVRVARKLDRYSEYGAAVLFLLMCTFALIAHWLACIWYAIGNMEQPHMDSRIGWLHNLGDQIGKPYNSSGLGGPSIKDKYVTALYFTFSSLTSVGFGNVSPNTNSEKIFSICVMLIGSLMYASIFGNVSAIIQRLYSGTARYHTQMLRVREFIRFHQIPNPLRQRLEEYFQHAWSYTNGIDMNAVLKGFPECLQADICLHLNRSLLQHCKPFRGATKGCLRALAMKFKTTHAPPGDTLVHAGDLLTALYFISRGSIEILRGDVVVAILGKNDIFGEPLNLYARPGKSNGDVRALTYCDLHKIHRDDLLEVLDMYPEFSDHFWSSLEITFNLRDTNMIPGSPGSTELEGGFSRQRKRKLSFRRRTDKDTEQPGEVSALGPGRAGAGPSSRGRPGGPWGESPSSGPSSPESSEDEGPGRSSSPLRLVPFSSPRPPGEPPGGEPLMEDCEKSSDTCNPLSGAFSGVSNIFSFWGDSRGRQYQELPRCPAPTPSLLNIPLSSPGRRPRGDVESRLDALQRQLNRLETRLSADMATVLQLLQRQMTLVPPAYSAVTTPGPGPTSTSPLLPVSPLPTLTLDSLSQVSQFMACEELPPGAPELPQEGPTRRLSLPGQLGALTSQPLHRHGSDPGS

HepG2 [4] = assay: Inhibition of lipid metabolism in human HepG2 cells assessed as increase in p-AMPK/AMPK ratio at 10 uM incubated for 24 hrs by Western blot analysis; type: functional, cell-based
Egl nine homolog 1 = Egl nine homolog 1 (Homo sapiens, UniProt Q9GZT9); assay: Inhibition of PHD2 (unknown origin) at 5 uM incubated for 15 mins by competitive fluorescence polarization assay relative to control
Egl nine homolog 1, sequence (Q9GZT9 2-426 limits assumed): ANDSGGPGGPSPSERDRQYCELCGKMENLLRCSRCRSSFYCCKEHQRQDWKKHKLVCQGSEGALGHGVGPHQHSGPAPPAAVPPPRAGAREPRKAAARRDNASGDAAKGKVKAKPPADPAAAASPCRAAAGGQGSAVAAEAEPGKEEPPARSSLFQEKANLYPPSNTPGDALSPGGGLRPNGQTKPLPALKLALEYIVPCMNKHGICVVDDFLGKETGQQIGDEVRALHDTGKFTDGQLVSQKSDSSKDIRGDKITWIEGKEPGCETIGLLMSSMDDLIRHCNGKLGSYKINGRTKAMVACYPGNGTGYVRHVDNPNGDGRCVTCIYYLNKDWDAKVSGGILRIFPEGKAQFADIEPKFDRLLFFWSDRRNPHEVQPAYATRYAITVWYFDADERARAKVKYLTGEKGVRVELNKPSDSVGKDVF

[5] = Microsomal stability in rat liver microsomes assessed as intrinsic clearance at 1 uM incubated for 60 mins by HPLC-MS/MS analysis; type: ADME, Microsome; details: read-out: CLH
MCF7 = assay: Cytotoxicity against human MCF7 cells assessed as reduction in cell viability at 10 uM incubated for 72 to 96 hrs by Celltiter-Glo assay; type: toxicity, cell-based; details: mcf7, 10 µM, time 72-96 hrs
CYP1A2 = CYP1A2 (Homo sapiens, UniProt P05177); assay: Inhibition of CYP1A2 in human liver microsomes at 10 uM incubated for 10 mins by LC-MS/MS analysis relative to control; type: ADME, Microsome
CYP1A2, sequence (P05177 whole entry): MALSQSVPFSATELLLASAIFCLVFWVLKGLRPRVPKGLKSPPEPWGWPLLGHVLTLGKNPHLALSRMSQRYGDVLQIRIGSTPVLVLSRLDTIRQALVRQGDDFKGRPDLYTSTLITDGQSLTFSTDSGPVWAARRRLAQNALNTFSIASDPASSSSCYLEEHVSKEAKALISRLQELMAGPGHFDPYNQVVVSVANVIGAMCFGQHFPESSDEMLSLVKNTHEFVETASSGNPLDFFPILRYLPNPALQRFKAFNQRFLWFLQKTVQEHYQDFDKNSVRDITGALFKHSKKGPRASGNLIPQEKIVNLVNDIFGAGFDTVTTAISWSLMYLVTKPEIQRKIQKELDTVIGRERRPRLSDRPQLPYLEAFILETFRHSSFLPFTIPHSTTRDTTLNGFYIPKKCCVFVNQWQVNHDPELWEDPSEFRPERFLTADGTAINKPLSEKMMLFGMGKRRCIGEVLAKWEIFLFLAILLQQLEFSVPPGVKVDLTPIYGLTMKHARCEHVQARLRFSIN

[6] = Oral bioavailability in overnight fasted Sprague-Dawley rat at 5 mg/kg measured upto 24 hrs; type: ADME, organism-based; details: in vivo
CYP2C8 = CYP2C8 (Homo sapiens, UniProt P10632); assay: Inhibition of CYP2C8 in human liver microsomes at 10 uM incubated for 20 mins by LC-MS/MS analysis relative to control; type: ADME, Microsome
CYP2C8, sequence (P10632 whole entry): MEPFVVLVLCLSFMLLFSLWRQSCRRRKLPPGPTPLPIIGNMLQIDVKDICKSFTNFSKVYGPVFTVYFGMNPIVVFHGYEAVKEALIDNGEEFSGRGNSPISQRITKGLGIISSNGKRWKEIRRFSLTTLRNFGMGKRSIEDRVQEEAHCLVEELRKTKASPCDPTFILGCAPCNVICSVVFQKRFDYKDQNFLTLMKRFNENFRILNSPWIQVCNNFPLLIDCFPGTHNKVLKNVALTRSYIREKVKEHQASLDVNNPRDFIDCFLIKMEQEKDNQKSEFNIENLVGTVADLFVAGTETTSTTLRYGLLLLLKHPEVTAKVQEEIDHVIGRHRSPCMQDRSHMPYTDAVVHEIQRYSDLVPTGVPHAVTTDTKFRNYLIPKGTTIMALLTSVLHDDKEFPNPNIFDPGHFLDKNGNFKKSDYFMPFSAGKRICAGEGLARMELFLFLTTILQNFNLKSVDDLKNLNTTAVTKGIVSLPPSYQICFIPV

BXPC-3 = assay: Cytotoxicity against human BXPC-3 cells assessed as reduction in cell viability at 10 uM incubated for 72 to 96 hrs by Celltiter-Glo assay; type: toxicity, cell-based; details: bxpc-3, 10 µM, time 72-96 hrs
HepG2 [7] = assay: Inhibition of lipid metabolism in human HepG2 assessed as reduction in intracellular total cholesterol level at 1 to 10 uM incubated for 24 hrs; type: functional, cell-based; details: dose 1-10 µM
[8] = Volume of distribution at steady state in overnight fasted Sprague-Dawley rat at 5 mg/kg, iv measured upto 24 hrs; type: ADME, organism-based; details: in vivo, read-out: Vdss
[9] = Cmax in overnight fasted Sprague-Dawley rat at 5 mg/kg, iv measured upto 24 hrs; type: ADME, organism-based; design: time < 24 hrs, dose 5 mg/kg, route iv; details: in vivo
MDA-MB-231 = assay: Cytotoxicity against human MDA-MB-231 cells assessed as reduction in cell viability at 10 uM incubated for 72 to 96 hrs by Celltiter-Glo assay; type: toxicity, cell-based; details: mda-mb-231, 10 µM, time 72-96 hrs
hERG [10] = biological target: T1, hERG; assay: Inhibition of hERG expressed in HEK293 cells at 1 uM by patch-clamp assay relative to control; type: toxicity, cell-based; details: HEK293 cells expressing hERG
A549 = assay: Cytotoxicity against human A549 cells assessed as reduction in cell viability at 10 uM incubated for 72 to 96 hrs by Celltiter-Glo assay; type: toxicity, cell-based; details: a549, 10 µM, time 72-96 hrs
Hepatocyte [11] = assay: Inhibition of lipid metabolism in mouse primary hepatocytes assessed as reduction in intracellular total cholesterol level at 10 uM incubated for 24 hrs; type: functional, cell-based
[12] = biological target: T2, Thyroid hormone receptor beta (Homo sapiens, UniProt P10828); assay: Agonist activity at human TR beta LBD (202 to 461 residues) expressed in Escherichia coli BL21 (DE3) cells assessed as induction of N-terminal biotinylated coactivator SRC2-3 peptide recruitment by alphascreen assay
T2 sequence (P10828 whole entry): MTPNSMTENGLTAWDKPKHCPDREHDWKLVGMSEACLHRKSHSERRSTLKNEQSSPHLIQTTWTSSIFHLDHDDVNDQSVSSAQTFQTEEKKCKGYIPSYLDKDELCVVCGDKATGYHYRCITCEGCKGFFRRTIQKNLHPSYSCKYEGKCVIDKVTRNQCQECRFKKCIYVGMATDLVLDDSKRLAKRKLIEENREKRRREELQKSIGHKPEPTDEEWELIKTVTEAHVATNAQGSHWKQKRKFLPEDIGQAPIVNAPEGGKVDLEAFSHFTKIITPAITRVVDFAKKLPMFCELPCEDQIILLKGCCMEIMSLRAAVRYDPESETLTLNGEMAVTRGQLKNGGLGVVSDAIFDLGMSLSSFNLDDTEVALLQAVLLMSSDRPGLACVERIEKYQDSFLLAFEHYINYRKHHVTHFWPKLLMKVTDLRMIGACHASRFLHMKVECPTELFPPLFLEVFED

HepG2 [13] = assay: Induction of mitochondrial uncoupled respiration in human HepG2 cells assessed as increase in oxygen consumption rate at 10 uM measured after 24 hrs by Seahorse XFe96 flux analyzer; type: functional, cell-based
[14] = Clearance in overnight fasted Sprague-Dawley rat at 5 mg/kg, iv measured upto 24 hrs; type: ADME, organism-based; details: in vivo
CYP2B6 = CYP2B6 (Homo sapiens, UniProt P20813); assay: Inhibition of CYP2B6 in human liver microsomes at 10 uM incubated for 10 mins by LC-MS/MS analysis relative to control; type: ADME, Microsome
CYP2B6, sequence (P20813 whole entry): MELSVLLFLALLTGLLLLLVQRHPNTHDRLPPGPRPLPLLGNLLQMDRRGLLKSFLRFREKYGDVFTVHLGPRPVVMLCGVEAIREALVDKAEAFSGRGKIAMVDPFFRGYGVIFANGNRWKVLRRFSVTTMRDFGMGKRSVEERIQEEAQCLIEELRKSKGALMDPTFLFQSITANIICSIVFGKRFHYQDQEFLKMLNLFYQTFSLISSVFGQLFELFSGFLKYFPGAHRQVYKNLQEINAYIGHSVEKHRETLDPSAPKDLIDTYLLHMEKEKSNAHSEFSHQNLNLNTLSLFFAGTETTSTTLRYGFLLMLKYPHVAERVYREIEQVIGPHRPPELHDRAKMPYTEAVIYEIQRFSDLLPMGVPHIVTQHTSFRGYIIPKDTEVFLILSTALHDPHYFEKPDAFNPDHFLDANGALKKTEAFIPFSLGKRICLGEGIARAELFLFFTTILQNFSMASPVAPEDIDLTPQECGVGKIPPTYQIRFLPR

HFL1 = assay: Cytotoxicity against human HFL1 cells assessed as reduction in cell viability at 10 uM incubated for 72 to 96 hrs by Celltiter-Glo assay; type: toxicity, cell-based; details: hfl1, 10 µM, time 72-96 hrs
[15] = Tmax in overnight fasted Sprague-Dawley rat at 5 mg/kg, iv measured upto 24 hrs; type: ADME, organism-based; details: in vivo
[16] = Microsomal stability in human liver microsomes assessed as intrinsic clearance at 1 uM incubated for 60 mins by HPLC-MS/MS analysis; type: ADME, Microsome; details: read-out: CLH
[17] = Tmax in overnight fasted Sprague-Dawley rat at 5 mg/kg, po measured upto 24 hrs; type: ADME, organism-based; details: in vivo
[18] = Cmax in overnight fasted Sprague-Dawley rat at 5 mg/kg, po measured upto 24 hrs; type: ADME, organism-based; design: time < 24 hrs, dose 5 mg/kg, route po; details: in vivo
Hepatocyte [19] = assay: Inhibition of lipid metabolism in mouse primary hepatocytes assessed as reduction in intracellular tryglyceride level at 10 uM incubated for 24 hrs; type: functional, cell-based
[20] = Microsomal stability in rat liver microsomes assessed as half life at 1 uM incubated for 60 mins by HPLC-MS/MS analysis; type: ADME, Microsome
HepG2 [21] = assay: Inhibition of lipid metabolism in human HepG2 assessed as reduction in intracellular tryglyceride level at 1 to 10 uM incubated for 24 hrs; type: functional, cell-based; details: dose 1-10 µM
HepG2 [22] = assay: Induction of mitochondrial basal respiration in human HepG2 cells assessed as increase in oxygen consumption rate at 10 uM measured after 24 hrs by Seahorse XFe96 flux analyzer; type: functional, cell-based
CYP2D6 = CYP2D6 (Homo sapiens, UniProt P10635); assay: Inhibition of CYP2D6 in human liver microsomes at 10 uM incubated for 45 mins by LC-MS/MS analysis relative to control; type: ADME, Microsome
CYP2D6, sequence (P10635 whole entry): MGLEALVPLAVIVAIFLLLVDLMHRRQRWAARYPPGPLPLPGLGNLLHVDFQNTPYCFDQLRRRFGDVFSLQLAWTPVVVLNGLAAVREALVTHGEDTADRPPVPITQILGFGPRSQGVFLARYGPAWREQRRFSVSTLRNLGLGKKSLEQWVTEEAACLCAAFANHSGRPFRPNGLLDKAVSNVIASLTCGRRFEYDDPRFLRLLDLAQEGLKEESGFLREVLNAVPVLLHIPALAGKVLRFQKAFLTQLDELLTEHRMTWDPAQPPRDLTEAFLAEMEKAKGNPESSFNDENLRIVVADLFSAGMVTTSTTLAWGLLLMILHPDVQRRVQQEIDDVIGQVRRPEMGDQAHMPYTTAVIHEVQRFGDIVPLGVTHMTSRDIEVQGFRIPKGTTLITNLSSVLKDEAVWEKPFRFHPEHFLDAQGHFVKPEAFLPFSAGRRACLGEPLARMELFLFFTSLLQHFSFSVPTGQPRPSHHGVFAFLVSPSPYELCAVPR

[23] = AUC (0 to infinity) in overnight fasted Sprague-Dawley rat at 5 mg/kg, iv measured upto 24 hrs; type: ADME, organism-based; design: dose 5 mg/kg, time < 24 hrs, route iv; details: in vivo
CWR22R = assay: Cytotoxicity against human 22Rv1 cells assessed as reduction in cell viability at 10 uM incubated for 72 to 96 hrs by Celltiter-Glo assay; type: toxicity, cell-based; details: time 72-96 hrs

## COc1cc(F)cc(C(=O)c2cc(C)c(Oc3ccc4c(O)c(C(=O)NCC(=O)O)nc(OC)c4c3)c(C)c2)c1
HepG2 [1]
  inhibition: Active
[2]
  EC50: 1340 nM
hERG [3]
  inhibition at 10 µM: 9.13%
HepG2 [4]
  inhibition: Active
Egl nine homolog 1
  inhibition: 4.8%
[5]
  CLint scaled at 1 µM: < 45.5 mL/min/kg
MCF7
  Activity: Non-Toxic
CYP1A2
  inhibition at 10 min, 10 µM: 1.67%
[6]
  bioavailability: 57.3%
CYP2C8
  inhibition at 20 min, 10 µM: 26.3%
BXPC-3
  Activity: Non-Toxic
HepG2 [7]
  inhibition: Active
[8]
  Vd: 0.72 L/kg
[9]
  Cmax: 8450 ng/mL
MDA-MB-231
  Activity: Non-Toxic
hERG [10]
  inhibition at 1 µM: 4.19%
A549
  Activity: Non-Toxic
Hepatocyte [11]
  inhibition: Active
[12]
  EC50: 21 nM
HepG2 [13]
  Activity: Active
[14]
  clearance: 7.83 mL/min/kg
CYP2B6
  inhibition at 10 min, 10 µM: 15.2%
HFL1
  Activity: Non-Toxic
[15]
  Tmax: 4.8 min
[16]
  CLint scaled at 1 µM: < 14.5 mL/min/kg
[17]
  Tmax: 1.33 h
[18]
  Cmax: 1450 ng/mL
Hepatocyte [19]
  inhibition: Active
[20]
  half-life at 1 µM: > 2 h
HepG2 [21]
  inhibition: Active
HepG2 [22]
  Activity: Active
CYP2D6
  inhibition at 0.75 h, 10 µM: -11.3%
[23]
  AUC(0-inf): 10900 ng·h/mL
CWR22R
  Activity: Non-Toxic
